Measurements: paper PMC12487869, “Toward Imaging of the GABA Transporter Type 1 In Vivo: Quantitative Evaluation of 4 Novel PET Radiotracers in Nonhuman Primates” (Journal of Nuclear Medicine, 2025)
“And” between values parts separate entries of the source, which are not always exact repeats. Equal entries are not always repeated. Each block holds one compound with its values, some of them ahead of it.

Assays:
[1] = tested on: GABAA receptor α5 subtype; parameters: method as in PMID 30102960, PMID 32578977; conditions: cited from earlier work
GAT-1 [2] = biological target: T1, GAT-1 (Macaca mulatta, UniProt H9ELS5); test: PET brain imaging with kinetic modeling (1TCM), baseline and tiagabine blocking scans; format: in vivo, rhesus monkeys (Macaca mulatta); conditions: for Median VT across ROIs: 1TCM
T1 construct: from tissue; host or cells: brain of living rhesus monkeys (in vivo PET)
Procedure: Twenty scans were acquired from 4 rhesus monkeys (Macaca mulatta). Each monkey underwent baseline and blocking scans with ^18F-GATT-31, ^18F-GATT-34, ^18F-GATT-39, or ^18F-GATT-44 (Fig. 1) on a Focus-220 small-animal PET scanner (Siemens Healthineers).
(§1) Before each scan, each monkey was sedated with alfaxalone (2 mg/kg), midazolam (0.3 mg/kg), and dexmedetomidine (0.01 mg/kg), and anesthesia was maintained with 1.5%–2.5% isoflurane. Heart rate, blood pressure, respiration rate, and oxygen saturation were monitored continuously. An intravenous line was placed in the saphenous or cephalic vein for delivery of the radiotracer, as well as tiagabine during blocking studies (0.5 mg/kg administered 19 ± 4 min before radiotracer injections). A catheter was placed in the radial or tibial artery for blood sampling.
Before injection, a transmission scan was acquired. Starting with injection of the radiotracer, PET emission data were acquired in list-mode format and binned into 45 frames (6 × 30 s, 3 × 1 min, 2 × 2 min, and 34 × 5 min).
For region-of-interest (ROI) definition, each PET image was registered to an in-house rhesus monkey anatomical MRI template using the concatenation of a rigid-body transformation between the summed PET image (0–10 min) and corresponding monkey’s MRI (using the FMRIB Linear Image Registration Tool) and a nonlinear transformation matrix estimated between the monkey’s MRI and the MRI template (BioImage Suite software version 3.01). Regional time–activity curves were extracted for the following 11 ROIs: brain stem, caudate, cerebellum, cingulate cortex, frontal cortex, hippocampus, insula, occipital cortex, putamen, temporal cortex, and thalamus.
For each baseline and blocking scan, kinetic analysis was performed using a 1-tissue compartment model (1TCM), a reversible 2-tissue compartment model (2TCM; k4 > 0), and an irreversible 2-tissue compartment model (2TiCM; k4 = 0), including a blood volume fraction (Vb) term and a time-delay term. Vb was estimated for each time–activity curve using the whole-blood curve fitted with a sum of exponentials. The time delay (Δt) between the input function and the brain was estimated by fitting the first 10 min of the whole-brain time–activity curve to a 1TCM with 3 parameters: K1, Vb, and Δt (k2 was set to 0 because of the negligible radiotracer washout during the first 10 min). This estimated time delay value was then used in the time–activity curve fits. The primary parameters of interest were the influx constant (K1, expressed in microliters per minute per cubic centimeter, since values were low), the volume of distribution (VT, expressed in milliliters per cubic centimeter), and the net influx constant (Ki, expressed in milliliters per minute per cubic centimeter) for 2TiCM.

[3] = Metabolite analysis of arterial plasma (unmetabolized parent fraction), column-switching HPLC; format: in vivo, rhesus monkeys (Macaca mulatta); conditions: mean ± SD
Procedure: Arterial blood samples were collected for each scan to measure the input function. Metabolite analysis was performed using an automatic column-switching high-performance liquid chromatography system ([22]) for 7 arterial blood samples collected at 5, 15, 30, 60, 90, 120, and 180 min. The radiometabolite-corrected arterial plasma input function was obtained by calculating the product of the fitted total plasma (fitted with a sum of exponentials) and unmetabolized parent fraction curves (using an integrated γ-function ([23])).

P-glycoprotein (PgP) = P-glycoprotein (PgP) (Homo sapiens, UniProt P08183); test: Efflux by P-glycoprotein; format: in vitro ADME
[4] = Plasma free fraction (fp), ultrafiltration method; format: in vitro ADME, rhesus monkeys (Macaca mulatta); conditions: measured in triplicate per scan, mean ± SD
Procedure: The plasma free fraction (fp) for each scan was measured in triplicate using the ultrafiltration method and calculated as the ratio of radioactivity in the filtrate to that in the plasma ([24]).

GAT-1 [5] = biological target: T1, GAT-1; test: Occupancy plots from baseline and tiagabine blocking PET scans (occupancy, VND, BPND); format: in vivo, rhesus monkeys (Macaca mulatta); conditions: for VND: occupancy plot; for Occupancy: tiagabine 0.5 mg/kg occupancy measured with this radiotracer
Procedure: as §1
Occupancy plots ([26]) were used to estimate tiagabine occupancy and the nondisplaceable volume of distribution (VND). This VND value was used to compute the nondisplaceable binding potential (BPND = VT/VND − 1). To compare the performance between 2 radiotracers, a Guo plot ([27]) was created, using baseline VT values, to assess the relative affinity and BPND values of each radiotracer.

GAT-1 [6] = tested on: GAT-1; parameters: method as in PMID 10642842; conditions: in vitro, human brain postmortem; cited from earlier work
[7] = Plasma tiagabine concentration by mass spectrometry; format: in vivo, rhesus monkeys (Macaca mulatta); conditions: 0.5 mg/kg tiagabine i.v.; 30–190 min after tiagabine injection
Procedure: For 8 of the 10 blocking scans, venous blood samples were acquired at 30, 60, 90, 120, 160, and 190 min after injection of tiagabine, in addition to 1 control sample before tiagabine injection, to measure its concentration using mass spectrometry (described in the supplemental materials).

[8] = parameters: method as in PMID 9530548; conditions: humans, 24-mg single oral dose; cited from earlier work
GABA = conditions: vervet brain in vivo; cited from earlier work
[9] = after blocking with tiagabine 0.5 mg/kg

T1 sequence (H9ELS5 1-599): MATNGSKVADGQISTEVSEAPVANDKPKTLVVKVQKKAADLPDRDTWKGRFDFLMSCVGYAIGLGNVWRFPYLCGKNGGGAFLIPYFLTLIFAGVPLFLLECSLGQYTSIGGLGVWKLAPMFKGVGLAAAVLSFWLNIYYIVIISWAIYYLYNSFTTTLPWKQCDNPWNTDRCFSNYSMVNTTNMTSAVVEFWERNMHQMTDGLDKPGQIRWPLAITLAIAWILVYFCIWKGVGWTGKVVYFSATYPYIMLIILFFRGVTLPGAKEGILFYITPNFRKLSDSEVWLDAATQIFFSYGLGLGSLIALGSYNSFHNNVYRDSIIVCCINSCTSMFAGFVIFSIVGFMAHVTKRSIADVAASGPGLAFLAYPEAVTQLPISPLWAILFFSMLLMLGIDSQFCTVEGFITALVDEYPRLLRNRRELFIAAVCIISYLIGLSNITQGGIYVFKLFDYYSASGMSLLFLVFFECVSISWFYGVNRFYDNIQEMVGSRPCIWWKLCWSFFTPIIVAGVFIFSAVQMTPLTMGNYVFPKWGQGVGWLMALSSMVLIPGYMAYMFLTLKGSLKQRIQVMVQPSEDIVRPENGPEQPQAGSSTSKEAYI
Sequence of P-glycoprotein (PgP) (P08183 whole entry): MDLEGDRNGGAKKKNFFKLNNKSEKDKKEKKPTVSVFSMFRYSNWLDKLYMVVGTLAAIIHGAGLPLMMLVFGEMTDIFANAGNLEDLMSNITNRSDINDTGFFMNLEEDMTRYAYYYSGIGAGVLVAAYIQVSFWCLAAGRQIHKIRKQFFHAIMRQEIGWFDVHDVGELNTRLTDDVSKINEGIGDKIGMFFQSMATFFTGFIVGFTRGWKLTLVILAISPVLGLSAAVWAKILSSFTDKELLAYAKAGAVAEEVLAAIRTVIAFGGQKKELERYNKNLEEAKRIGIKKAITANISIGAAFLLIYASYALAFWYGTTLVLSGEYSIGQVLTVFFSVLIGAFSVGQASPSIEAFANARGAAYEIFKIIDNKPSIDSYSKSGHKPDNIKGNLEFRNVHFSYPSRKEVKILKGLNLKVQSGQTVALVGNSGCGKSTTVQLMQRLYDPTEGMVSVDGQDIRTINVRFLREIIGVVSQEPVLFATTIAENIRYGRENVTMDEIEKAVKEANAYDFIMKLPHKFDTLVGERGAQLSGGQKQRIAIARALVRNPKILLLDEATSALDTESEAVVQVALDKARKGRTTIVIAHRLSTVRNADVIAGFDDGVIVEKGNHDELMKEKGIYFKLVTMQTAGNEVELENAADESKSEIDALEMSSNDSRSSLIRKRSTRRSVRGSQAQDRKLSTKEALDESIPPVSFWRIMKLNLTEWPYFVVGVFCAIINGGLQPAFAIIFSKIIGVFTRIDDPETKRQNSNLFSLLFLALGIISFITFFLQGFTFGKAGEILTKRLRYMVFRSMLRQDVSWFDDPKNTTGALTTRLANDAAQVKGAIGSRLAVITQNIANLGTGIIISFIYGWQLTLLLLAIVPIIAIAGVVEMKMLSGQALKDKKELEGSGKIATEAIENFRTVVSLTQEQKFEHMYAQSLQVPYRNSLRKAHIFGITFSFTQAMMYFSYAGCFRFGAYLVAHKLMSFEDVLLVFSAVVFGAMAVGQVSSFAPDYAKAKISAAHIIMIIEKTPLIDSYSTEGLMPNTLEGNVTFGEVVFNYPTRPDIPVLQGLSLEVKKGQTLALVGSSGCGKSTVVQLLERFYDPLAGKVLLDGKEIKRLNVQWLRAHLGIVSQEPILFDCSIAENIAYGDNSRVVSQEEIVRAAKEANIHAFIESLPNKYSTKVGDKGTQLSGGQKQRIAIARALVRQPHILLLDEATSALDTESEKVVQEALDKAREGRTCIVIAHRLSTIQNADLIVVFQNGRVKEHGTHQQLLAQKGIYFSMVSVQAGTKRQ

Median VT across ROIs (GAT-1 [2]; [9]): 1.3 mL/cm^3
Median VT across ROIs (GAT-1 [2]; baseline): 1.5 mL/cm^3
Blocking effect of tiagabine on VT (GAT-1 [2]; tiagabine 0.5 mg/kg): small
Parent compound ([3]; 30 min): 91 ± 2%
Parent compound ([3]; 90 min): 83 ± 2%
Free fraction [4]: 10.8 ± 0.4%
SMILES: Cc1ccccc1C(=COCCN1CCCC(C(=O)O)C1)c1ccc([18F])cc1 (stereo not shown) [^18F-GATT-34]

K1 values (GAT-1 [2]; 1TCM influx constant): especially low
Median VT across ROIs (GAT-1 [2]; [9]): 0.9 mL/cm^3
Median VT across ROIs (GAT-1 [2]; baseline): 1.6 mL/cm^3
Parent compound ([3]; 30 min): 95 ± 4%
Parent compound ([3]; 90 min): 85 ± 9%
Free fraction [4]: 10.5 ± 1.0%
SMILES: O=C(O)C1CCCN(CCC=C(c2ccccc2[18F])c2ccccc2Cl)C1 (stereo not shown) [^18F-GATT-39]

Average plasma concentration [7]: 385 ± 70 µg/L
SMILES: Cc1ccsc1C(=CCCN1CCC[C@@H](C(=O)O)C1)c1sccc1C [tiagabine, (R)-1-[4,4-bis(3-methyl-2-thienyl)-3-butenyl]-3-piperidinecarboxylic acid]
Selectivity for GAT-1 (GAT-1 [6]): excellent selectivity for GAT-1
Elimination half-life [8]: 7.3 h
Plasma concentration peak value [8]: 552 ng/mL
Effect on GABA in brain (GABA): increase GABA

Continued, compound first:

SMILES: CCOC(=O)c1ncn2c1CN([11CH3])C(=O)c1cc(N=[N+]=[N-])ccc1-2 [[^11C]Ro15-4513]
Affinity [1]: high affinity

SMILES: Cc1ccccc1C(=COCCN1CCCC(C(=O)O)C1)c1ccccc1[18F] (stereo not shown) [^18F-GATT-31]
Median VT across ROIs (GAT-1 [2]; [9]): 1.5 mL/cm^3
Median VT across ROIs (GAT-1 [2]; baseline): 2.8 mL/cm^3
Parent compound ([3]; 30 min): 87 ± 3%
Parent compound ([3]; 90 min): 76 ± 6%
Parent compound ([3]; 180 min): 63% and 63 ± 11%
Efflux by PgP (category) (P-glycoprotein (PgP)): low efflux by PgP
Free fraction [4]: 12.4 ± 1.8%
VND (GAT-1 [5]; monkey 1): 0.31 mL/cm^3
VND (GAT-1 [5]; monkey 2): −0.61 mL/cm^3 and −0.61 ^* mL/cm^3
VND (GAT-1 [5]; monkey 3): 1.02 mL/cm^3
Occupancy (GAT-1 [5]; monkey 1): 69%
Occupancy (GAT-1 [5]; monkey 2): 22%
Occupancy (GAT-1 [5]; monkey 3): 70%
